For 20 compounds, EC50 and IC50 results are on record in patent US20120225062A1 (priority 2011, published 2012).

Experiment [1] concerns KMS11 (human myeloma cell line). Briefly: Cell Proliferation Assay (CellTiter-Glo, 3 days). In kind it is cell-based. The conditions noted are these: KMS-11, 72 h, KMS11-luc cells. In outline:
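KMS11 myeloma cells, 2000 per well in IMDM with 10% FBS, exposed to compound for 3 days at 37° C. Viability read by CellTiter-Glo luminescence; EC50 derived.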

For another experiment, the target named is Pim 1 (Homo sapiens, UniProt P11309). In words: Pim 1 AlphaScreen assay (high ATP).
Another experiment addresses Pim 3 (Homo sapiens, UniProt Q86V86). In words: Pim 3 AlphaScreen assay (high ATP).
The next experiment concerns the target Pim 2 (Homo sapiens, UniProt Q9P1W9). Briefly: Pim 2 AlphaScreen assay (high ATP).

Pim 1, sequence (P11309 whole entry): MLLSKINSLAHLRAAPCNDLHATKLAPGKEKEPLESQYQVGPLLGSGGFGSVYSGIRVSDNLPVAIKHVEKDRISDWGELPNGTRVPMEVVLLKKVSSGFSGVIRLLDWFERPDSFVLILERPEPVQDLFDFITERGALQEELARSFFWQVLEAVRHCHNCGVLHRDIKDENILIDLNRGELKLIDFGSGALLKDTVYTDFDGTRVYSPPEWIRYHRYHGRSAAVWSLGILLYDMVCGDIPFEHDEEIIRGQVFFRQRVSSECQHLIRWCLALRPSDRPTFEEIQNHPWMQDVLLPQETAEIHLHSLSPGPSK
Pim 2, sequence (Q9P1W9 whole entry): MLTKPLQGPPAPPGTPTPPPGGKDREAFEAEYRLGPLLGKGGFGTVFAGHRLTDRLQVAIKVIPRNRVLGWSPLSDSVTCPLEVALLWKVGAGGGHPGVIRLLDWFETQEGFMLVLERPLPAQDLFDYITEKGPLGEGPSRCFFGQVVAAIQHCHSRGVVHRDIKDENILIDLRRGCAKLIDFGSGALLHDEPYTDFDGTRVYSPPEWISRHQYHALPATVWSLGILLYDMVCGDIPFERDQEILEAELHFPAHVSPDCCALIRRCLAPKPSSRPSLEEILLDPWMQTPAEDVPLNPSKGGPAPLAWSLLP
Method for Pim 1: The activity of Pim 1, Pim 2, & Pim 3 is measured using a homogeneous bead based system quantifying the amount of phosphorylated peptide substrate resulting from kinase-catalyzed phosphoryl transfer to a peptide substrate. Compounds to be tested are dissolved in 100% DMSO and directly distributed to a white 384-well plate at 0.25 μl per well. […] This is followed by the addition of 5 μl/well of Pim 1, Pim 2 or Pim 3 kinase in assay buffer (concentrations described below). Final assay concentrations (described below) are in 2.5% DMSO. The reactions are performed for ˜2 hours, then stopped by the addition of 10 μl of 0.75 μg/ml anti-phospho Ser/Thr antibody (Cell Signaling), 10 μg/ml Protein A AlphaScreen beads (Perkin Elmer), and 10 μg/ml streptavidin coated AlphaScreen beads in stop/detection buffer (50 mM EDTA, 95 mM Tris, pH=7.5, 0.01% Tween-20). The stopped reactions are incubated overnight in the dark. The phosphorylated peptide is detected via an oxygen anion initiated chemiluminescence/fluorescence cascade using the Envision plate reader (Perkin Elmer).

Regarding `COCCOc1cc(F)c(-c2nc(C(=O)Nc3cnccc3[C@@H]3C[C@H](C)C[C@H](N)C3)ccc2F)c(F)c1` [Example 12, N-(4-((1R,3S,5S)-3-amino-5-methylcyclohexyl)pyridin-3-yl)-6-(2,6-difluoro-4-(2-methoxyethoxy)phenyl)-5-fluoropicolinamide], in experiment [1], the EC50 stood at 120 nM. The IC50 against Pim 1 is 0.04 nM; against Pim 3, 1.39 nM; against Pim 2, 2.91 nM.

Turning to `C[C@@H]1C[C@H](N)C[C@H](c2ccncc2NC(=O)c2ccc(F)c(-c3c(F)ccc(OCCO)c3F)n2)C1` [Example 29, N-(4-((1R,3S,5S)-3-amino-5-methylcyclohexyl)pyridin-3-yl)-6-(2,6-difluoro-3-(2-hydroxyethoxy)phenyl)-5-fluoropicolinamide], the EC50 in experiment [1] stood at 64 nM. Further, the figures for the concentration for half-maximal inhibition (IC50) against Pim 1, against Pim 3 and at Pim 2 were 0.04 nM, 1.08 nM and 2.33 nM, respectively.

Take `C[C@@H]1C[C@H](N)C[C@H](c2ccncc2NC(=O)c2ccc(F)c(-c3c(F)cc(OCC(C)(C)O)cc3F)n2)C1` [Example 50, N-(4-((1R,3S,5S)-3-amino-5-methylcyclohexyl)pyridin-3-yl)-6-(2,6-difluoro-4-(2-hydroxy-2-methylpropoxy)phenyl)-5-fluoropicolinamide]: in experiment [1], the 50% effective concentration (EC50) was found to be 13 nM. Besides, the IC50 on Pim 1 was found to be 0.02 nM; against Pim 3, 0.72 nM; on Pim 2 it was 3.28 nM.

As to `Cc1noc(C)c1-c1cc(F)c(-c2nc(C(=O)Nc3cnccc3[C@@H]3C[C@H](C)C[C@H](N)C3)ccc2F)c(F)c1` [Example 174, N-(4-((1R,3S,5S)-3-amino-5-methylcyclohexyl)pyridin-3-yl)-6-(4-(3,5-dimethylisoxazol-4-yl)-2,6-difluorophenyl)-5-fluoropicolinamide], the response in experiment [1] was half-maximal at 1020 nM (EC50). Also, the concentration for half-maximal inhibition (IC50) on Pim 1 worked out at 0.08 nM; at Pim 3 it was 10.1 nM; against Pim 2, 30 nM.

`C[C@H]1CN(c2ccncc2NC(=O)c2ccc(F)c(-c3c(F)cc(S(C)(=O)=O)cc3F)n2)C[C@@H](N)[C@@H]1O` [Example 16, N-(4-((3R,4R,5S)-3-amino-4-hydroxy-5-methylpiperidin-1-yl)pyridin-3-yl)-6-(2,6-difluoro-4-(methylsulfonyl)phenyl)-5-fluoropicolinamide] came in with an EC50 in experiment [1] of 37 nM. The IC50 against Pim 1 was determined as 0.08 nM; against Pim 3, 2.66 nM; against Pim 2, 2.07 nM.

Consider `C[C@@H]1C[C@H](N)C[C@H](c2ccncc2NC(=O)c2ccc(F)c(-c3c(F)cc([S@@+](C)[O-])cc3F)n2)C1` [Example 228, N-(4-((1R,3S,5S)-3-amino-5-methylcyclohexyl)pyridin-3-yl)-6-(2,6-difluoro-4-((R)-methylsulfinyl)phenyl)-5-fluoropicolinamide], for which the EC50 in experiment [1] worked out at 94 nM. Also, the results for the IC50 against Pim 1, against Pim 3 and against Pim 2 were 0.14 nM, 7.85 nM and 6.26 nM, respectively.

For the compound `COCCCOc1cc(F)c(-c2nc(C(=O)Nc3cnccc3[C@@H]3C[C@H](C)C[C@H](N)C3)ccc2F)c(F)c1` [Example 176, N-(4-((1R,3S,5S)-3-amino-5-methylcyclohexyl)pyridin-3-yl)-6-(2,6-difluoro-4-(3-methoxypropoxy)phenyl)-5-fluoropicolinamide], in experiment [1], a half-maximal effect (EC50) was put at 182 nM. Moreover, the IC50 was determined as 0.01 nM against Pim 1, 0.48 nM against Pim 3 and 1.62 nM at Pim 2.

In turn, `C[C@H]1C[C@@H](c2ccncc2NC(=O)c2ccc(F)c(-c3c(F)cc(C4CCOCC4)cc3F)n2)C[C@@H](N)[C@@H]1O` [Example 94, N-(4-((1R,3R,4R,5S)-3-amino-4-hydroxy-5-methylcyclohexyl)pyridin-3-yl)-6-(2,6-difluoro-4-(tetrahydro-2H-pyran-4-yl)phenyl)-5-fluoropicolinamide] showed an EC50 in experiment [1] of 24 nM. Further, the IC50 on Pim 1 is 0.01 nM; against Pim 3, 0.39 nM; against Pim 2, 1.29 nM.

For the compound `C[C@H]1C[C@@H](c2ccncc2NC(=O)c2ccc(F)c(-c3c(F)cc(CC(C)(C)O)cc3F)n2)C[C@@H](N)[C@@H]1O` [Example 85, N-(4-((1R,3R,4R,5S)-3-amino-4-hydroxy-5-methylcyclohexyl)pyridin-3-yl)-6-(2,6-difluoro-4-(2-hydroxy-2-methylpropyl)phenyl)-5-fluoropicolinamide], in experiment [1], the concentration giving a half-maximal response (EC50) worked out at 49 nM. The IC50 was 0.05 nM against Pim 1, 1.34 nM against Pim 3 and 2.2 nM on Pim 2.

In turn, `C[C@H]1CN(c2ccncc2NC(=O)c2ccc(F)c(-c3c(F)cc(C4(O)CC4)cc3F)n2)C[C@@H](N)[C@@H]1O` [Example 103, N-(4-((3R,4R,5S)-3-amino-4-hydroxy-5-methylpiperidin-1-yl)pyridin-3-yl)-6-(2,6-difluoro-4-(1-hydroxycyclopropyl)phenyl)-5-fluoropicolinamide] returned an EC50 in experiment [1] of 21 nM. Also, the IC50 against Pim 1 is 0.02 nM; against Pim 3, 0.37 nM; at Pim 2, 0.68 nM.

As to `CSc1cc(F)c(-c2nc(C(=O)Nc3cnccc3N3C[C@@H](N)[C@H](O)[C@@H](C)C3)ccc2F)c(F)c1` [Example 23, N-(4-((3R,4R,5S)-3-amino-4-hydroxy-5-methylpiperidin-1-yl)pyridin-3-yl)-6-(2,6-difluoro-4-(methylthio)phenyl)-5-fluoropicolinamide], it took 29 nM to reach a half-maximal effect in experiment [1] (EC50). Also, the IC50 on Pim 1 amounted to 0.02 nM; against Pim 3, 0.32 nM; against Pim 2 it was 0.96 nM.

The compound `COCCc1cc(F)c(-c2nc(C(=O)Nc3cnccc3[C@H]3C[C@@H](N)[C@H](O)[C@@H](C)C3)ccc2F)c(F)c1` [Example 108, N-(4-((1R,3R,4R,5S)-3-amino-4-hydroxy-5-methylcyclohexyl)pyridin-3-yl)-6-(2,6-difluoro-4-(2-methoxyethyl)phenyl)-5-fluoropicolinamide] came in with an EC50 in experiment [1] of 906 nM. Further, the IC50 on Pim 1 stood at 0.04 nM; against Pim 3, 1.19 nM; on Pim 2 it was 2.93 nM.

As to `N#CC1(c2cc(F)c(-c3nc(C(=O)Nc4cnccc4[C@@H]4CCC[C@H](N)C4)ccc3F)c(F)c2)CCOCC1` [Example 172, N-(4-((1R,3S)-3-aminocyclohexyl)pyridin-3-yl)-6-(4-(4-cyanotetrahydro-2H-pyran-4-yl)-2,6-difluorophenyl)-5-fluoropicolinamide], the EC50 in experiment [1] came to 403 nM. In addition, the figures for the IC50 at Pim 1, on Pim 3 and on Pim 2 were 0.08 nM, 19.6 nM and 29.7 nM, respectively.

Turning to `COC1(c2cc(F)c(-c3nc(C(=O)Nc4cnccc4[C@H]4C[C@@H](N)[C@H](O)[C@@H](C)C4)c(N)cc3F)c(F)c2)COC1` [Example 91, 3-amino-N-(4-((1R,3R,4R,5S)-3-amino-4-hydroxy-5-methylcyclohexyl)pyridin-3-yl)-6-(2,6-difluoro-4-(3-methoxyoxetan-3-yl)phenyl)-5-fluoropicolinamide], in experiment [1], the EC50 is 25 nM. Moreover, the IC50 against Pim 1 amounted to 0.02 nM; at Pim 3, 0.93 nM; against Pim 2, 1.44 nM.

In experiment [1], `C[C@@H]1C[C@H](N)C[C@H](c2ccncc2NC(=O)c2nc(-c3c(F)cc(C4COC4)cc3F)c(F)cc2N)C1` [Example 241, 3-amino-N-(4-((1R,3S,5S)-3-amino-5-methylcyclohexyl)pyridin-3-yl)-6-(2,6-difluoro-4-(oxetan-3-yl)phenyl)-5-fluoropicolinamide] returned an EC50 of 30 nM. The IC50 at Pim 1 came to 0.02 nM; on Pim 3, 0.61 nM; against Pim 2, 1.24 nM.

Consider `CC(C)Oc1cc(F)c(-c2nc(C(=O)Nc3cnccc3[C@H]3C[C@@H](N)[C@H](O)[C@@H](C)C3)c(N)cc2F)c(F)c1` [Example 97], for which, in experiment [1], the EC50 was found to be 69 nM. Besides, the figures for the IC50 against Pim 1, against Pim 3 and on Pim 2 were 0.02 nM, 0.37 nM and 1.55 nM, respectively.

For `C[C@@H]1C[C@H](N)C[C@H](c2ccncc2NC(=O)c2ccc(F)c(-c3c(F)cc(N4CCOCC4)cc3F)n2)C1` [Example 168, N-(4-((1R,3S,5S)-3-amino-5-methylcyclohexyl)pyridin-3-yl)-6-(2,6-difluoro-4-morpholinophenyl)-5-fluoropicolinamide], in experiment [1], the concentration for a half-maximal effect (EC50) was found to be 52 nM. The IC50 is 0.02 nM on Pim 1, 0.95 nM on Pim 3 and 1.36 nM at Pim 2.

The compound `C[C@@H]1C[C@H](N)C[C@H](c2ccncc2NC(=O)c2ccc(F)c(-c3c(F)cc(C4CCOCC4)cc3F)n2)C1` [Example 82, N-(4-((1R,3S,5S)-3-amino-5-methylcyclohexyl)pyridin-3-yl)-6-(2,6-difluoro-4-(tetrahydro-2H-pyran-4-yl)phenyl)-5-fluoropicolinamide] had an EC50 in experiment [1] of 30 nM. Moreover, the IC50 at Pim 1 was 0.01 nM; against Pim 3, 0.52 nM; against Pim 2, 1.05 nM.

As for `C[C@@H]1C[C@H](N)C[C@H](c2ccncc2NC(=O)c2ccc(F)c(-c3c(F)cc(OCCO)cc3F)n2)C1` [Example 229, N-(4-((1R,3S,5S)-3-amino-5-methylcyclohexyl)pyridin-3-yl)-6-(2,6-difluoro-4-(2-hydroxyethoxy)phenyl)-5-fluoropicolinamide], in experiment [1], a half-maximal effect (EC50) was put at 26 nM. Further, the IC50 at Pim 1 worked out at 0.03 nM; against Pim 3, 0.82 nM; against Pim 2, 2.58 nM.

`COCCc1cc(F)c(-c2nc(C(=O)Nc3cnccc3N3C[C@@H](N)[C@H](O)[C@@H](C)C3)ccc2F)c(F)c1` [Example 109, N-(4-((3R,4R,5S)-3-amino-4-hydroxy-5-methylpiperidin-1-yl)pyridin-3-yl)-6-(2,6-difluoro-4-(2-methoxyethyl)phenyl)-5-fluoropicolinamide]: the midpoint of the response in experiment [1], the EC50, lay at 28 nM. In addition, the results for the IC50 on Pim 1, against Pim 3 and on Pim 2 were 0.01 nM, 0.14 nM and 0.38 nM, respectively.
